Measured values: patent US4301313A, “Halogenated ethynyl biphenyls” (Eli-Lilly and Company, priority 1974, dated 1981)
Several values for one entry are separate records, joined by “and”; a condition that tells them apart may be missing. Equal values may be shown once.

Columns and labels:
[1] = ultraviolet-induced erythema blocking test, oral (modified Winder method); format: in vivo, guinea pig (male albino); conditions: Cavia porcellus, guinea pig, weighted scores 1.0-2.5 h after UV, dose which provides 50% inhibition
Experimental: The compounds of the present invention were evaluated for anti-inflammatoryactivity by the ultraviolet-induced erythema blocking test. The test procedures were a modification of the Winder method (Winder, C. V.; Wax, J.; Burr, V.; Been, M.; and Posiere, C. E.: A Study of Pharmacological Influences on Ultraviolet Erythema in Guinea Pigs. Arch. Int. Pharmacodyn. 116: 261, 1958). Male albino guinea pigs weighing 240-300 gm. were used. The hair on the back was clipped and chemically depilated 15-18 hours before each experiment. The animals were fasted overnight, and on the day of the experiment, were randomized and placed in clear plastic partitioned holders 10×20 cm. wide and 15 cm. high.
The compounds to be tested were suspended in 1% methyl cellulose in water, utilizing a tissue homogenizer. The suspensions were administered orally in a volume of 2.0 ml./kg. of body weight. Control animals received an equal amount of the vehicle.
The source of ultraviolet light was a Hanovia lamp (Kromayer-Model 10). A notebook reinforcement ring was placed upon the lens of the lamp to provide an area of contrast for grading purposes. The lens was then placed in contact with the skin of the guinea pig's back. Exposure time to UV was for a period of 4 seconds. Beginning one hour after exposure and thereafter at half-hour intervals for another 11/2 hours, the degree of resulting erythema was graded by an arbitrary scoring system based upon the degree of contrast and redness formed. Anti-inflammatory agents delay the development of the erythema and have their greatest effect at the initial grading periods. The scores were, therefore, weighted by factors of 4, 3, 2, and 1 at the 1.0, 1.5, 2.0, and 2.5 hour scoring times, respectively. The erythema was graded as follows:
Total scores from each treatment group of four guinea pigs were compared to the scores of the control group. The percent inhibition was calculated as follows: [formula] In the case of compounds showing inhibition, retesting was carried out at a plurality of doses to enable calculation of an ED50 for each such compound. "ED50 " designates that dose which provides 50% inhibition. Calculation of the ED50 was either by a standard linear regression method or by estimation from a dose-response curve of three or more points. The compounds so tested and their ED50 s were as follows: […]

[2] = adjuvant-induced arthritis test (paw volume); format: in vivo, rat (male albino); conditions: rat, oral
[3] = carrageenin-induced hind paw inflammation; format: in vivo; conditions: Rattus norvegicus
Experimental: (§1) Representative compounds were also evaluated for anti-inflammatory activity in the test method described by C. A. Winter at 111 Proc. Soc. Exp. Biol. Med., 544 (1962). In this method, inflammation is created by injecting carrageenin into the hind paw of rats. Test compounds are administered prior to injection to determine percent inhibition of the subsequent inflammation, in comparison with control animals.

[4] = analgesic activity, acetic acid-induced writhing; format: in vivo, mouse (albino male); conditions: mouse, p.o., dose reducing writhing frequency by 50%; 30, 90, 180 minutes after administration
Experimental: Representative compounds were also evaluated for analgesic activity. The evaluation was conducted by using acetic acid-induced writhing in mice as the pain model. Clinically effective analgesis are effective when tested in this model: see Koster et al., "Acetic Acid for Analgesic Screening," 18 Fed. Proc. 412 (1959).
In a method similar to that reported by Koster et al., standard strain albino male mice weighing 20-22 grams were fasted overnight. The respective compound or vehicle (as control) was administered by gastric lavage (p.o.). Each compound was administered in an aqueous suspension of 1% methylcellulose in water. […] At 30, 90, and 180 minutes after administration, writhing was induced by the intraperitoneal administration of 55 mg./kg. of acetic acid (0.55%). Each treatment group consisted of 5 mice and separate groups were examined at each observation time. The total number of writhes for the treatment group were counted in a 10-minute observation period starting 5 minutes after the acetic acid administration. The treatment totals were compared to controls and a percent inhibition calculated as follows: [formula] […] An ED50, which represented the dose that would reduce the writhing frequency by 50%, was estimated from a dose-reponse curve of three or more points. A dose range was reported if only two points were availale for the dose response curve and they bracketed the 50% level. If data was available at 100 mg./kg., only, then the estimated ED50 was reported simply as less than 100 (<100).

[5] = carrageenin induced test, compound administered about 20 hours prior; format: in vivo; conditions: rat, dose 10 (unit not given), about 20 hours prior to test
Experimental: as §1
Each of 4-biphenylylacetylene and (4-(2-fluorophenyl)phenyl)acetylene was evaluated again in the carrageenin induced test method reported in Examples 60-80. However, in these tests, the compound was administered about 20 hours prior to the test procedures.

[6] = dose not printed (line below dose 25)

C#Cc1ccc(-c2ccccc2)c(Cl)c1 [(3-chloro-4-phenylphenyl)acetylene, (3-Chloro-4-phenylphenyl)acetylene]
ED50 [1]: 0.033 mg/kg | Percent Inhibition of Volume Increase, Day 7 ([2]; dose 0.1 (unit not given)): 21% | Percent Inhibition of Volume Increase, Day 14 ([2]; dose 0.1 (unit not given)): 36% | Percent Inhibition of Volume Increase, Day 7 ([2]; dose 0.3 (unit not given)): 56% | Percent Inhibition of Volume Increase, Day 14 ([2]; dose 0.3 (unit not given)): 50% | Percent Inhibition of Volume Increase, Day 7 ([2]; dose 1 (unit not given)): 34% | Percent Inhibition of Volume Increase, Day 14 ([2]; dose 1 (unit not given)): 41% | Percent Inhibition of Volume Increase, Day 7 ([2]; dose 3 (unit not given)): 30% | Percent Inhibition of Volume Increase, Day 14 ([2]; dose 3 (unit not given)): 45% | inhibition in vivo at 0.3 mg/kg ([3]; 0.3 mg./kg.): 23% | inhibition in vivo at 3 mg/kg [3]: 41% | inhibition in vivo at 10 mg/kg [3]: 62% | Estimated ED50 [4]: 30 mg/kg

C#Cc1ccc(-c2ccccc2)cc1 [4-biphenylylacetylene, 4-Biphenylylacetylene]
ED50 [1]: 0.9 mg/kg | Percent Inhibition of Volume Increase, Day 7 ([2]; dose 0.3 (unit not given)): 15% | Percent Inhibition of Volume Increase, Day 14 ([2]; dose 0.3 (unit not given)): 0% | Percent Inhibition of Volume Increase, Day 7 ([2]; dose 1 (unit not given)): 0% | Percent Inhibition of Volume Increase, Day 14 ([2]; dose 1 (unit not given)): 0% | Percent Inhibition of Volume Increase, Day 7 ([2]; dose 3 (unit not given)): 14% | Percent Inhibition of Volume Increase, Day 14 ([2]; dose 3 (unit not given)): 7% | Percent Inhibition of Volume Increase, Day 7 ([2]; dose 25 (unit not given)): 29% | Percent Inhibition of Volume Increase, Day 14 ([2]; dose 25 (unit not given)): 37% | Percent Inhibition of Volume Increase, Day 7 [2, 6]: 37% | Percent Inhibition of Volume Increase, Day 14 [2, 6]: 23% | inhibition in vivo at 0.5 mg/kg ([3]; 0.5 mg./kg.): 0% | inhibition in vivo at 3 mg/kg [3]: 36% | inhibition in vivo at 5 mg/kg ([3]; 5 mg./kg.): 37% | inhibition in vivo at 10 mg/kg [3]: 42% | inhibition in vivo at 20 mg/kg ([3]; 20 mg./kg.): 45% | inhibition in vivo at 50 mg/kg ([3]; 50 mg./kg.): 41% | % Inhibition [5]: 44% and 28% | Estimated ED50 [4]: 50 mg/kg
